Measurements as given in patent US8524861B2, “Treatment of bacterial infections” (priority 2004, dated 2013).
Where no end group is shown, it is not given here.

Columns and labels:
Type in all cases: cell-based
[1] = system: Staphylococcus aureus (ATCC strain 6538P); details: for IC50: ATCC strain 6538P; for Activity against Staphylococcus, in particular S. aureus, in words: summary in description
Protocol: (§1) Bacterial Stocks—ATCC derived stock bacteria were obtained from Oxoid Limited. Pseudomonas aeruginosa (ATCC strain 9027) or Staphylococcus aureus (ATCC strain 6538P) were obtained in ‘Cultiloop’ format. Stocks were prepared by inoculating 20 ml of LB broth with a single Cultiloop, and incubating overnight at 37° C. Cells present after overnight incubation were harvested by removing larger aggregates by centrifugation (3000 g, 10 minutes), and withdrawing 16 ml of the supernatant, which was likely to contain mainly planktonic bacteria. To this, 4 ml of sterile glycerol was added (the latter having been sterilised by autoclaving). The resultant suspension was divided between 15× 1 ml cryovials before freezing at −85° C.
(§2) Preliminary experiments were carried out to estimate the amount to dilute bacterial stocks which when on addition of 25 μl of diluted stock to 100 μl of fresh LB broth would result in bacteria in log phase growth after overnight incubation at 37° C.
(§3) The peptides were examined for antibacterial efficacy against Staphylococcus aureus. To test the efficacy of peptides, dilutions of test peptides or PBS (for use as a control) were prepared in LB broth, and 100 μl aliquots of these placed in 96-well plates. A vial of planktonic bacterial stock was thawed in a 37° C. incubator and diluted to the level previously determined which would produce log phase growth after overnight incubation (see above). 25 μl of this bacterial dilution was then added to the test wells (some wells containing LB broth without peptide were left without any bacterial inoculation, these being used as a blank). After overnight growth, the concentration of bacteria in individual wells was assessed by measuring absorbance at 620 nm, in a microplate spectrophotometer. The average absorbance of wells for specific concentrations of peptides was calculated, and from this the percentage inhibition (relative to untreated wells) was also calculated and plotted against concentration (along with an estimate of error on that % inhibition).
(§4) The inventor constructed an expanded library of peptides derived from either apolipoprotein B or apolipoprotein E in order to further evaluate polypeptides in accordance with the invention. Further experiments were then conducted to investigate the antibacterial activity of this peptide library against the bacteria P. aeroginosa, S. aureus and S. pneumoniae. The methods used to determine the IC50 values for each peptide were as described in the Example 1.

[2] = system: Pseudomonas aeruginosa (ATCC strain 9027); details: for IC50: ATCC strain 9027; for Effectiveness against Pseudomonadales, in particular P. aeruginosa, in words: summary in description
Protocol: as §1, §2, §3
Peptides in accordance with the invention were also examined for antibacterial efficacy against Pseudomonas aeruginosa using the same technique as described above to calculate the IC50 values.
Points were obtained by dividing the average for six treated wells by the average for six untreated wells, and bars show an estimate of the error for these calculated values.
as §4

[3] = system: Staphylococcus aureus, Pseudomonas aeruginosa, and Streptococcus pneumoniae; test: Antibacterial activity, overall statements over the test bacteria
From the text: The inventors conducted exhaustive experiments to assess the antibacterial activity of peptides from apolipoproteins and derivatives thereof. Peptides and derivatives from ApoE and ApoB were a particular focus. […] Example 1 illustrates the efficacy of the polypeptides according to the invention compared to apoE141-149 and apoB3359-3367 (i.e. non-tandem repeats) and other peptides derived from apolipoproteins.
The activity of polypeptides in accordance with the invention can be seen in Tables 5, 6, 7 and 8.
as §3, §4

Substance	IC50 [1] [µM]	IC50 [2] [µM]	Antibacterial activity, in words, bacterium not specified [3]	other results
WRWRRRWRKWRWRRRWRK-NH2 (C-terminus assumed) [MU_25]	> 53	> 53		
WRKWRKRWWFRKFRKRFF-NH2 (C-terminus assumed) [MU_117]	7	10		
WRKRWWRWRKRWWR-NH2 (C-terminus assumed) [MU_81]	20	28		
RWRKRGRKRWRKRGRK-NH2 (C-terminus assumed) [MU_69]	27	> 53		
WRWKKKWRKWRWKKKWRK-NH2 (C-terminus assumed) [MU_26]	52	52		
MRKLRKRLMMRKLRKRLM-NH2 (C-terminus assumed) [MU_43]		17	particularly effective	
Ac-LRKLRKRLLWRKWRKRLL-NH2 (N-terminus and C-terminus assumed) [MU_113]	11			Effectiveness against Pseudomonadales, in particular P. aeruginosa, in words [2]: particularly effective
YRKYRKRYYYRKYRKRYY-NH2 (C-terminus assumed) [MU_6]		> 53		Activity against Staphylococcus, in particular S. aureus, in words [1]: particularly active
modified apoB3359-3367: modified form of the apoB3359-3367 9-mer; sequence only in the drawing of Table 1 (LRTRKRGRK) [reference compound]			no detectable antibacterial activity	
RWRKRWRKRWRKRWRK-NH2 (C-terminus assumed) [MU_71]	18.5	28		
WRKWRKRWRKWRKR-NH2 (C-terminus assumed) [GIN 32]		5		
RLTRKRGLK [apoB3359-3367, monomeric 9-mer of apolipoprotein B, reference compound]			no detectable antibacterial activity	
DRKDRKRDDDRKDRKRDD [MU_3]			do not show antibacterial activity	
Ac-LRKRLLLRKLRKRLL-NH2 (N-terminus and C-terminus assumed) [GIN 02]		8.5		Effectiveness against Pseudomonadales, in particular P. aeruginosa, in words [2]: particularly effective
RWRKRWRWRKRWRWRKRW-NH2 (C-terminus assumed) [MU 84]	15	53		
Ac-WRKWRKRLLLRKLRKRLL-NH2 (N-terminus and C-terminus assumed) [MU_114]	5.5			Activity against Staphylococcus, in particular S. aureus, in words [1]: particularly active; Effectiveness against Pseudomonadales, in particular P. aeruginosa, in words [2]: particularly effective
MRKMRKRMMMRKMRKRMM-NH2 (C-terminus assumed) [MU_5]	> 53	> 53		
IRKIRKRIIIRKIRKRII-NH2 (C-terminus assumed) [MU_8]	> 53	45		
CRKCRKRCCCRKCRKRCC [MU_12]			do not show antibacterial activity	
LRVRLASHLRKLRKRLLRDADDLQKRLAVY LRVRLASHLRKLRKRLLRDADDLQKRLAVY (LRVRLASHLRKLRKRLLRDADDLQKRLAVYLRVRLASHLRKLRKRLLRDADDLQKRLAVY) [tandem repeat of Azuma's peptide, 60-mer dimer of apoE133-162]			improved antibacterial efficacy	
Ac-LRKLRKRLLWRKWRKRWW-NH2 (N-terminus and C-terminus assumed) [MU_111]	7	12.5		
RLTRKRGRLTRKRG-NH2 (C-terminus assumed) [MU_74]	> 53	31		
LRKLRKRLL [apoE141-149, reference compound]			no detectable antibacterial activity	
LRKLRKRLLLRK [GIN 05]			do not show antibacterial activity	
WRKWRKFFFRKWRKRWW-NH2 (C-terminus assumed) [MU_116]	6.5	14		
